Data: paper PMC2248166, “Quantitative peptide binding motifs for 19 human and mouse MHC class I molecules derived using positional scanning combinatorial peptide libraries” (Immunome Research, 2008)
Where a SMILES comes first, the peptide text is derived from it.

Target: HLA B*1501 (Homo sapiens, UniProt P01889, A329T/A93T/A95T/C349S/D201E/D98Y/E187L/E204Q/E69M/E70A/K202T/N87E/Q94N/R155S/R180W/S121R/S35A/S48A/V306I/V36M/Y140S/Y91S)
Assay: biochemical
Type: binding

Compound | IC50 [µM]
CC[C@H](C)[C@H](NC(=O)[C@H](Cc1ccccc1)NC(=O)[C@@H](N)Cc1ccc(O)cc1)C(=O)N[C@@H](CCCCN)C(=O)N[C@@H](Cc1c[nH]cn1)C(=O)N[C@H](C(=O)N[C@@H](CC(C)C)C(=O)N[C@@H](C)C(=O)N[C@@H](Cc1ccccc1)C(=O)O)C(C)C [3102.0907] (H-YFIKHVLAF-OH) | 0.0025
CC[C@H](C)[C@H](NC(=O)[C@H](CCC(=O)O)NC(=O)[C@H](CS)NC(=O)[C@H](CCCNC(=N)N)NC(=O)[C@@H](NC(=O)[C@@H](N)CCCCN)[C@@H](C)CC)C(=O)N[C@H](C(=O)N[C@@H](CO)C(=O)N[C@@H](Cc1ccccc1)C(=O)O)[C@@H](C)O [3102.0909] (H-KIRCEITSF-OH) | 0.0043
CC[C@H](C)[C@H](NC(=O)[C@@H](N)CCC(=O)O)C(=O)N[C@@H](C)C(=O)N[C@@H](CCCCN)C(=O)N[C@@H](Cc1ccc(O)cc1)C(=O)NCC(=O)N[C@@H](Cc1c[nH]cn1)C(=O)N[C@@H](CO)C(=O)N[C@@H](Cc1ccccc1)C(=O)O [3102.0911] (H-EIAKYGHSF-OH) | 0.058
CSCC[C@H](NC(=O)[C@@H](N)CCCNC(=N)N)C(=O)N[C@@H](Cc1ccccc1)C(=O)N[C@@H](Cc1c[nH]cn1)C(=O)N[C@@H](Cc1ccccc1)C(=O)N[C@@H](Cc1ccccc1)C(=O)N[C@@H](CCC(=O)O)C(=O)N[C@@H](Cc1c[nH]cn1)C(=O)N[C@@H](CCC(=O)O)C(=O)O [3102.0915] (H-RMFHFFEHE-OH) | 0.067
CC[C@H](C)[C@H](NC(=O)[C@@H]1CCCN1C(=O)[C@H](CCC(=O)O)NC(=O)[C@H](CC(N)=O)NC(=O)[C@H](CO)NC(=O)[C@H](CC(=O)O)NC(=O)[C@H](Cc1ccccc1)NC(=O)[C@H](CC(C)C)NC(=O)[C@@H](N)CC(C)C)C(=O)O [3102.0916] (H-LLFDSNEPI-OH) | 0.016
CC[C@H](C)[C@H](NC(=O)[C@H](C)NC(=O)[C@@H](N)Cc1ccccc1)C(=O)N[C@@H](CO)C(=O)N[C@@H](Cc1ccc(O)cc1)C(=O)N[C@@H](CS)C(=O)N[C@@H](CCCNC(=N)N)C(=O)N[C@@H](C)C(=O)N[C@@H](Cc1ccccc1)C(=O)O [3102.0920] (H-FAISYCRAF-OH) | 0.076
CSCC[C@H](NC(=O)[C@H](CCCNC(=N)N)NC(=O)[C@H](CS)NC(=O)[C@@H]1CCCN1C(=O)[C@H](CO)NC(=O)[C@@H](N)CCSC)C(=O)N[C@@H](Cc1ccccc1)C(=O)N[C@@H](CO)C(=O)N[C@@H](Cc1ccccc1)C(=O)O [3102.0921] (H-MSPCRMFSF-OH) | 0.017
CC(C)C[C@H](NC(=O)[C@H](CO)NC(=O)[C@H](CCCCN)NC(=O)[C@H](CC(C)C)NC(=O)[C@@H](N)CO)C(=O)N[C@@H](Cc1ccc(O)cc1)C(=O)N[C@@H](CCC(=O)O)C(=O)N[C@@H](C)C(=O)N[C@@H](Cc1ccccc1)C(=O)O [3102.0923] (H-SLKSLYEAF-OH) | 0.02
CC(C)C[C@H](NC(=O)[C@H](CS)NC(=O)[C@H](CCCCN)NC(=O)[C@H](CCCCN)NC(=O)[C@H](Cc1ccccc1)NC(=O)[C@H](CO)NC(=O)[C@@H](N)Cc1ccccc1)C(=O)N[C@H](C(=O)N[C@@H](Cc1ccc(O)cc1)C(=O)O)C(C)C [3102.0925] (H-FSFKKCLVY-OH) | 0.0047
CC[C@H](C)[C@H](NC(=O)[C@H](CO)NC(=O)[C@@H](N)CCCNC(=N)N)C(=O)N[C@@H](CO)C(=O)N[C@@H](CCCNC(=N)N)C(=O)N[C@H](C(=O)N[C@@H](CCC(=O)O)C(=O)N[C@@H](CC(N)=O)C(=O)N[C@@H](Cc1ccccc1)C(=O)O)[C@@H](C)O [3102.0929] (H-RSISRTENF-OH) | 0.0048
CC[C@H](C)[C@H](N)C(=O)N[C@@H](CO)C(=O)N[C@@H](CCCCN)C(=O)N[C@@H](CC(N)=O)C(=O)N[C@@H](C)C(=O)N[C@@H](Cc1ccccc1)C(=O)N[C@@H](CO)C(=O)N[C@@H](CS)C(=O)N[C@@H](CCSC)C(=O)O [3102.0935] (H-ISKNAFSCM-OH) | 0.078
CSCC[C@H](NC(=O)[C@H](CCC(N)=O)NC(=O)[C@H](CO)NC(=O)[C@H](CO)NC(=O)[C@@H](N)CC(C)C)C(=O)N[C@H](C(=O)N[C@@H](CO)C(=O)N[C@H](C(=O)N[C@@H](Cc1ccccc1)C(=O)O)[C@@H](C)O)[C@@H](C)O [3102.0940] (H-LSSQMTSTF-OH) | 0.004
CSCC[C@H](NC(=O)[C@H](CO)NC(=O)[C@@H](NC(=O)[C@H](CC(C)C)NC(=O)[C@H](CCCCN)NC(=O)[C@H](CO)NC(=O)[C@@H](N)Cc1ccc(O)cc1)[C@@H](C)O)C(=O)N[C@@H](Cc1c[nH]cn1)C(=O)N[C@@H](Cc1ccccc1)C(=O)O [3102.0944] (H-YSKLTSMHF-OH) | 0.00057
CC[C@H](C)[C@H](NC(=O)[C@H](CO)NC(=O)[C@@H](N)CCSC)C(=O)N[C@H](C(=O)N[C@@H](CO)C(=O)N[C@@H](Cc1ccccc1)C(=O)N[C@@H](Cc1ccccc1)C(=O)N1CCC[C@H]1C(=O)N[C@@H](Cc1ccccc1)C(=O)O)[C@@H](C)CC [3102.0947] (H-MSIISFFPF-OH) | 0.00017
CC[C@H](C)[C@H](NC(=O)[C@@H](N)CO)C(=O)N[C@@H](CCCCN)C(=O)N[C@@H](CC(N)=O)C(=O)N[C@@H](CC(C)C)C(=O)N[C@H](C(=O)N[C@@H](CO)C(=O)N[C@@H](CCC(N)=O)C(=O)N[C@@H](Cc1ccccc1)C(=O)O)C(C)C [3102.0951] (H-SIKNLVSQF-OH) | 0.025
CC(C)C[C@H](NC(=O)[C@H](Cc1ccc(O)cc1)NC(=O)[C@H](Cc1ccccc1)NC(=O)[C@@H](NC(=O)[C@H](CC(N)=O)NC(=O)[C@H](CCCCN)NC(=O)[C@H](CO)NC(=O)[C@@H](N)CC(C)C)[C@@H](C)O)C(=O)N[C@@H](Cc1ccccc1)C(=O)O [3102.0952] (H-LSKNTFYLF-OH) | 0.014
CC[C@H](C)[C@H](NC(=O)[C@@H](NC(=O)[C@H](Cc1ccccc1)NC(=O)[C@H](CCCCN)NC(=O)[C@H](CCC(N)=O)NC(=O)[C@@H](N)CCSC)[C@@H](C)O)C(=O)N[C@@H](CC(C)C)C(=O)N[C@@H](CCC(=O)O)C(=O)N[C@@H](Cc1ccc(O)cc1)C(=O)O [3102.0953] (H-MQKFTILEY-OH) | 0.01
CC[C@H](C)[C@H](NC(=O)[C@H](CCCNC(=N)N)NC(=O)[C@H](Cc1ccc(O)cc1)NC(=O)[C@H](CCC(N)=O)NC(=O)[C@@H](NC(=O)[C@@H](N)CC(C)C)C(C)C)C(=O)N[C@@H](CC(C)C)C(=O)N1CCC[C@H]1C(=O)N[C@@H](CCSC)C(=O)O [3102.0954] (H-LVQYRILPM-OH) | 0.063
CC[C@H](C)[C@H](NC(=O)[C@H](CCC(=O)O)NC(=O)[C@@H](N)CCC(=O)O)C(=O)N[C@@H](CO)C(=O)N[C@H](C(=O)N[C@@H](CO)C(=O)N[C@@H](CC(C)C)C(=O)N[C@@H](CO)C(=O)N[C@@H](Cc1ccccc1)C(=O)O)[C@@H](C)O [3102.0958] (H-EEISTSLSF-OH) | 0.0021
CC(C)C[C@H](NC(=O)[C@H](CC(N)=O)NC(=O)[C@H](C)NC(=O)[C@H](CO)NC(=O)[C@@H](N)CC(C)C)C(=O)N[C@@H](Cc1ccccc1)C(=O)N[C@@H](CCC(=O)O)C(=O)N[C@@H](CO)C(=O)N[C@@H](CCC(N)=O)C(=O)O [3102.0959] (H-LSANLFESQ-OH) | 0.045
C[C@H](NC(=O)[C@H](CO)NC(=O)[C@@H](N)CCCNC(=N)N)C(=O)N[C@@H](CC(N)=O)C(=O)N[C@H](C(=O)N[C@@H](CO)C(=O)N[C@@H](C)C(=O)N1CCC[C@H]1C(=O)N[C@@H](Cc1ccccc1)C(=O)O)[C@@H](C)O [3102.0964] (H-RSANTSAPF-OH) | 0.00068
